The values that follow come from patent US8252326B2, “Self-microemulsifying dosage forms of low solubility active ingredients such as co-enzyme Q10” (Catalent Australia Pty Ltd., priority 2005, dated 2012).

For data set [1] the following is noted: cited from earlier work.
Data set [2] can be described thus: Solubility of coenzyme Q10 in oils, surfactants and co-surfactants. It counts as physicochemical. On the procedure: To determine suitable excipient systems for actives, solubility studies were carried out on a variety of constituents of the inventive SMEDDS formulations. The solubility of Q10 in various oils, surfactants and co-surfactants were determined by placing an excess of the Q10 (approximately 2.5 g) in 22.5 g of the vehicle in screw capped glass bottles and heating the mixture to 55° C. in a water bath to facilitate the solubilization. Mixtures were equilibrated at room temperature for 24 hours and then filtered through 0.45 μm membrane filter to separate the undissolved drug. One gram of the filtered liquid mixtures were then weighed and diluted with cyclohexane and quantified by UV/Visible Spectrometry. Lemon oil and isopropyl myristate provided higher solubility than other oils. Although not limited to a theory of operation, it is believed that the oils form a distinct core in the interior of the surfactant aggregate when being dispersed in water, resulting in enhanced solubilizing capacity of the oils with improved drug loading capabilities of the emulsion.

For the compound `COC1=C(OC)C(=O)C(C/C=C(\C)CC/C=C(\C)CC/C=C(\C)CC/C=C(\C)CC/C=C(\C)CC/C=C(\C)CC/C=C(\C)CC/C=C(\C)CC/C=C(\C)CCC=C(C)C)=C(C)C1=O` [Coenzyme Q10], the Solubility in water result in data set [1] was “practically insoluble in water”. For the same compound, the “Solubility of coenzyme Q10 (% w/w)” value in data set [2] (in Acetylated monoglycerides, room temperature 24 hours) was determined as 7.5 % w/w; in data set [2] (in Capmul MCM C8, room temperature 24 hours) it was 1.50 % w/w; in data set [2] (in Glyceryl mono-oleate, room temperature 24 hours), 2.41 % w/w; in data set [2] (in Isopropyl myristate, room temperature 24 hours), 11.2 % w/w; in data set [2] (in Labrafac Hydro WL1219, room temperature 24 hours), 3.17 % w/w; in data set [2] (in Labrafil M 1944, room temperature 24 hours), 5.91 % w/w. The “Solubility of coenzyme Q10 (% w/w)” value in data set [2] (in Labrafil M 2125, room temperature 24 hours) came to 5.35 % w/w; in data set [2] (in Lauroglyco 1 FCC, room temperature 24 hours), 3.05 % w/w; in data set [2] (in Lauroglyco 190, room temperature 24 hours), 3.06 % w/w; in data set [2] (in Lemon oil, equilibrated at room temperature 24 hours, 0.45 μm filtered), 24.3 % w/w; in data set [2] (in Medium chain triglycerides, room temperature 24 hours) it was 3.74 % w/w; in data set [2] (in Oleic acid, room temperature 24 hours), 3.80 % w/w. The “Solubility of coenzyme Q10 (% w/w)” value in data set [2] (in PEG 35 Castor oil, room temperature 24 hours) turned out to be 2.34 % w/w; in data set [2] (in Polysorbate 80, room temperature 24 hours), 0.370 % w/w; in data set [2] (in Polysorbate 85, room temperature 24 hours), 1.57 % w/w; in data set [2] (in Span 80, room temperature 24 hours) it was 3.24 % w/w; in data set [2] (in Transcutol P, room temperature 24 hours) it was 0.260 % w/w.
